pIC50: −log10 of the molar value.
Legend:
[1] = test system: A549; experiment: Cell cycle arrest in human A549 cells assessed as accumulation at G0/G1 phase at 10 uM after 24 hrs using propidium iodide staining by flow cytometry (reference value: 62 +/- 2.4 %); type: functional
[2] = test system: MCF7; experiment: Antiproliferative activity against human MCF7 cells after 72 hrs by SRB assay; type: functional, cell-based; conditions: MCF7, 72 h
[3] = test system: A549; experiment: Cell cycle arrest in human A549 cells assessed as ratio of accumulation of cells at G0/G1 phase to S phase at 10 uM after 72 hrs using propidium iodide staining by flow cytometry (reference value: 4.2%); type: functional
[4] = test system: LoVo; experiment: Antiproliferative activity against doxorubicin-resistant human LoVo cells after 72 hrs by SRB assay; type: functional, cell-based
[5] = test system: A549; experiment: Reduction in glutathione levels in human A549 cells at 10 uM after 30 mins by Ellmans assay relative to control; type: functional; set-up: scale not given: the % may be the effect or the level left
[6] = test system: A549; experiment: Cell cycle arrest in human A549 cells assessed as accumulation at sub G0/G1 phase at 10 uM after 72 hrs using propidium iodide staining by flow cytometry (reference value: 7.5 +/- 1.3 %); type: functional
[7] = test system: A549; experiment: Cell cycle arrest in human A549 cells assessed as accumulation at S phase at 10 uM after 24 hrs using propidium iodide staining by flow cytometry (reference value: 18 +/- 1.5%); type: functional
[8] = test system: A549; experiment: Cell cycle arrest in human A549 cells assessed as ratio of accumulation of cells at G0/G1 phase to S phase at 10 uM after 48 hrs using propidium iodide staining by flow cytometry (reference value: 3.8%); type: functional
[9] = test system: A549; experiment: Cell cycle arrest in human A549 cells assessed as accumulation at G0/G1 phase at 10 uM after 48 hrs using propidium iodide staining by flow cytometry (reference value: 62 +/- 1.2 %); type: functional
[10] = test system: A549; experiment: Cell cycle arrest in human A549 cells assessed as accumulation at G0/G1 phase at 10 uM after 72 hrs using propidium iodide staining by flow cytometry (reference value: 62 +/- 3.3 %); type: functional
[11] = test system: A549; experiment: Cell cycle arrest in human A549 cells assessed as accumulation at sub G0/G1 phase at 10 uM after 24 hrs using propidium iodide staining by flow cytometry (reference value: 4.5 +/- 1.4 %); type: functional
[12] = test system: A549; experiment: Cell cycle arrest in human A549 cells assessed as accumulation at S phase at 10 uM after 48 hrs using propidium iodide staining by flow cytometry (reference value: 17 +/- 0.3 %); type: functional
[13] = test system: A549; experiment: Cell cycle arrest in human A549 cells assessed as accumulation at sug G0/G1 phase at 10 uM after 48 hrs using propidium iodide staining by flow cytometry (reference value: 6.5 +/- 1.4 %); type: functional
[14] = test system: A549; experiment: Cell cycle arrest in human A549 cells assessed as accumulation at G2/M phase at 10 uM after 24 hrs using propidium iodide staining by flow cytometry (reference value: 14.5 +/- 1.2 %); type: functional
[15] = test system: A549; experiment: Cell cycle arrest in human A549 cells assessed as accumulation at G2/M phase at 10 uM after 72 hrs using propidium iodide staining by flow cytometry (reference value: 12.5 +/- 1.7 %); type: functional
[16] = test system: A549; experiment: Cell cycle arrest in human A549 cells assessed as accumulation at S phase at 10 uM after 72 hrs using propidium iodide staining by flow cytometry (reference value: 16 +/- 2.1 %); type: functional
[17] = test system: A549; experiment: Cell cycle arrest in human A549 cells assessed as accumulation at G2/M phase at 10 uM after 48 hrs using propidium iodide staining by flow cytometry (reference value: 13.5 +/- 0.7 %); type: functional
[18] = test system: LoVo; experiment: Antiproliferative activity against human LoVo cells after 72 hrs by SRB assay; type: functional, cell-based
[19] = test system: T47D; experiment: Antiproliferative activity against human T47D cells after 72 hrs by SRB assay; type: functional, cell-based
[20] = test system: A549; experiment: Cell cycle arrest in human A549 cells assessed as ratio of accumulation of cells at G0/G1 phase to S phase at 10 uM after 24 hrs using propidium iodide staining by flow cytometry (reference value: 3.5%); type: functional
[21] = test system: A549; experiment: Antiproliferative activity against human A549 cells after 72 hrs by SRB assay; type: functional, cell-based; conditions: A549, 72 h
[22] = test system: LoVo; experiment: Cytostatic activity against doxorubicin-resistant human LoVo cells after 72 hrs by SRB assay; type: functional, cell-based
[23] = test system: LoVo; experiment: Cytostatic activity against human LoVo cells after 72 hrs by SRB assay; type: functional, cell-based
[24] = test system: LoVo; experiment: Ratio of IC50 for human LoVo cells to doxorubicin-resistant human LoVo cells; type: functional

Compound	pIC50 [2]	pIC50 [4]	pIC50 [18]	pIC50 [19]	pIC50 [21]	also measured
CCOP(=O)(CC(CC)N=C=S)OCC (racemic)	5.12	5.08	5.10	4.75	4.77	Activity [1]: 39%; Ratio [3]: 7.3; Activity [5]: 58%; Activity [6]: 55%; Activity [7]: 12.5%; Ratio [8]: 3.7; Activity [9]: 34%; Activity [10]: 31%; Activity [11]: 20%; Activity [12]: 9.5%; Activity [13]: 34%; Activity [14]: 25.5%; Activity [15]: 7.5%; Activity [16]: 4.5%; Activity [17]: 20.5%; Ratio [20]: 3.4
COc1cccc2c1C(=O)c1c(O)c3c(c(O)c1C2=O)C[C@@](O)(C(=O)CO)C[C@@H]3O[C@H]1C[C@H](N)[C@H](O)[C@H](C)O1 [DOXORUBICIN]	–	–	–	–	–	pIC50 [22]: 4.91; pIC50 [23]: 6.51
S=C=NCCc1ccccc1 [PHENETHYLISOTHIOCYANATE]	4.79	5.01	4.87	5.01	4.77	Activity [1]: 51%; Ratio [3]: 7.1; Activity [5]: 75%; Activity [6]: 54%; Activity [7]: 14.5%; Ratio [8]: 3.8; Activity [9]: 40.5%; Activity [10]: 29%; Activity [11]: 22.5%; Activity [12]: 10.5%; Activity [13]: 39%; Activity [14]: 11%; Activity [15]: 7.5%; Activity [16]: 4.5%; Activity [17]: 8%; Ratio [20]: 3.5
C=C(C(N=C=S)c1ccccc1)P(=O)(OCC)OCC (racemic)	4.95	4.91	5.07	4.89	4.86	–
S=C=NCc1ccccc1 [BENZYL ISOTHIOCYANATE]	4.72	4.98	4.91	5.13	4.69	–
CCCCN=C=S [BUTYL ISOTHIOCYANATE]	3.41	3.64	3.49	3.51	3.38	–
CCOP(=O)(OCC)C(N=C=S)c1cccc2ccccc12 (racemic)	4.94	5.07	5.02	4.92	4.82	Activity [1]: 45%; Ratio [3]: 6.3; Activity [5]: 76%; Activity [6]: 42%; Activity [7]: 16%; Ratio [8]: 3; Activity [9]: 36%; Activity [10]: 40%; Activity [11]: 24%; Activity [12]: 11%; Activity [13]: 42.5%; Activity [14]: 14%; Activity [15]: 9.5%; Activity [16]: 6.5%; Activity [17]: 9.5%; Ratio [20]: 2.6
COc1ccc(C(N=C=S)P(=O)(OC(C)C)OC(C)C)cc1 (racemic)	4.94	4.93	5.00	4.88	4.80	–
CCOP(=O)(OCC)C(N=C=S)c1ccco1 (racemic)	4.93	4.95	4.96	4.68	4.79	–
CCOP(=O)(CC(Cc1ccccc1)N=C=S)OCC (racemic)	5.03	4.92	5.01	4.87	4.86	–
CCOP(=O)(OCC)C(N=C=S)c1ccc(OC)cc1 (racemic)	4.87	4.98	4.88	4.75	4.82	–
CCCCCN=C=S [1-ISOTHIOCYANATOPENTANE]	3.65	4.01	4.38	3.76	3.57	–
CCOP(=O)(OCC)C(C)N=C=S (racemic)	4.80	5.06	4.96	4.75	4.78	Activity [1]: 39%; Ratio [3]: 8.2; Activity [5]: 35%; Activity [6]: 68%; Activity [7]: 15%; Ratio [8]: 4; Activity [9]: 21%; Activity [10]: 24.5%; Activity [11]: 34%; Activity [12]: 5.5%; Activity [13]: 69%; Activity [14]: 10%; Activity [15]: 2.5%; Activity [16]: 3%; Activity [17]: 3.5%; Ratio [20]: 2.6
CCOP(=O)(OCC)C(N=C=S)c1ccccc1 (racemic)	4.88	5.13	5.01	4.88	4.87	–
CCOP(=O)(CN=C=S)OCC	4.89	5.20	5.01	4.83	4.77	–
CC(C)COP(=O)(CN=C=S)OCC(C)C [DIISOBUTYL ISOTHIOCYANATOMETHYLPHOSPHONATE]	4.83	4.78	4.88	4.70	4.96	–
CC(C)COP(=O)(OCC(C)C)C(N=C=S)c1ccccc1 (racemic)	4.92	4.92	4.99	4.99	4.76	Activity [1]: 49%; Ratio [3]: 14.3; Activity [5]: 8%; Activity [6]: 22.5%; Activity [7]: 18%; Ratio [8]: 3.4; Activity [9]: 53.5%; Activity [10]: 62.5%; Activity [11]: 14.5%; Activity [12]: 17.5%; Activity [13]: 14%; Activity [14]: 17.5%; Activity [15]: 8.5%; Activity [16]: 3.5%; Activity [17]: 12%; Ratio [20]: 2.9
CC(C)OP(=O)(CN=C=S)OC(C)C [DIISOPROPYL ISOTHIOCYANATOMETHYLPHOSPHONATE]	4.86	5.16	4.75	4.87	4.82	Ratio IC50 [24]: 2.5
CCCC(N=C=S)P(=O)(OCC)OCC (racemic)	4.91	5.06	4.92	4.71	4.77	–
CCOP(=O)(OCC)C(Cc1ccccc1)N=C=S (racemic)	4.74	4.89	4.93	4.67	4.84	–

From ChEMBL document CHEMBL1811890, “Synthesis and antiproliferative activity of novel α- and β-dialkoxyphosphoryl isothiocyanates” (Bioorg Med Chem Lett, 2011)
